Experimental data: PMC11953309 (Nature Communications, 2025)

Tested on: IBD mouse fecal-derived ex vivo microbial community
Assay: Ex vivo screening on IBD mouse fecal-derived microbial community
Assay type: cell-based, IL-10-deficient C57BL/6N mouse

Structure (SMILES): CN[C@H](CC(C)C)C(=O)N[C@H]1C(=O)N[C@@H](CC(N)=O)C(=O)N[C@H]2C(=O)N[C@H]3C(=O)N[C@H](C(=O)N[C@H](C(=O)O)c4cc(O)cc(O)c4-c4cc3ccc4O)[C@H](O)c3ccc(c(Cl)c3)Oc3cc2cc(c3O[C@@H]2O[C@H](CO)[C@@H](O)[C@H](O)[C@H]2O[C@H]2C[C@](C)(N)[C@H](O)[C@H](C)O2)Oc2ccc(cc2Cl)[C@H]1O [vancomycin]
- Number of differentially abundant species (10 μg/mL, 48 h anaerobic, mGAM, MaAsLin2 vs blank, FDR-adjusted p < 0.05, n = 3): 73
- beta diversity (PCoA, Bray-Curtis) clustering vs blank (AIPs 10 μg/mL, vancomycin 1 μg/mL and 10 μg/mL, 48 h): notable differences
